Measured values published in patent US8835462B2, “Macrocyclic picolinamides as fungicides” (Dow AgroSciences LLC, priority 2012, dated 2014).

Columns and labels:
Type in all cases: in vivo
[1] = system: Uncinula necator; assay: Grape powdery mildew (UNCINE) fungicidal activity; details: Erysiphe necator, 24 h, 1 Day Protectant, read-out: Disease Control UNCINE 1DP
Experimental: Technical grades of materials were dissolved in acetone, which were then mixed with nine volumes of water containing 110 ppm Triton X-100. The fungicide solutions were applied onto wheat seedlings using an automated booth sprayer to run-off. All sprayed plants were allowed to air dry prior to further handling. Wheat plants (variety Yuma) were grown from seed in a greenhouse in 50% mineral soil/50% soil-less Metro mix until the first leaf was fully emerged, with 7-10 seedlings per pot. These plants were inoculated with an aqueous spore suspension of Septoria tritici either prior to or after fungicide treatments. After inoculation the plants were kept in 100% relative humidity (one day in a dark dew chamber followed by two to three days in a lighted dew chamber at 20° C.) to permit spores to germinate and infect the leaf. The plants were then transferred to a greenhouse set at 20° C. for disease to develop. When disease symptoms were fully expressed on the 1st leaves of untreated plants, infection levels were assessed on a scale of 0 to 100 percent disease severity. Percent disease control was calculated using the ratio of disease severity on treated plants relative to untreated plants. Evaluation of Fungicidal Activity: Grape Powdery Mildew (Uncinula Necator; Bayer Code […]) Grape seedlings (variety Carignane) were grown in soil-less Metro mix, with one plant per pot, and used in the test when approximately one month old. Plants were inoculated 24 hr after fungicide treatment by shaking spores from infected leaves over test plants. Plants were maintained in a greenhouse set at 20° C. until disease was fully developed. Fungicide formulation, application and disease assessment on the sprayed leaves followed the procedures as described in the Example A.

[2] = system: Venturia inaequalis; assay: Apple scab (VENTIN) fungicidal activity; details: 24 h, 1 Day Protectant, read-out: Disease Control VENTIN 1DP
Experimental: Technical grades of materials were dissolved in acetone, which were then mixed with nine volumes of water containing 110 ppm Triton X-100. The fungicide solutions were applied onto wheat seedlings using an automated booth sprayer to run-off. All sprayed plants were allowed to air dry prior to further handling. Wheat plants (variety Yuma) were grown from seed in a greenhouse in 50% mineral soil/50% soil-less Metro mix until the first leaf was fully emerged, with 7-10 seedlings per pot. These plants were inoculated with an aqueous spore suspension of Septoria tritici either prior to or after fungicide treatments. After inoculation the plants were kept in 100% relative humidity (one day in a dark dew chamber followed by two to three days in a lighted dew chamber at 20° C.) to permit spores to germinate and infect the leaf. The plants were then transferred to a greenhouse set at 20° C. for disease to develop. When disease symptoms were fully expressed on the 1st leaves of untreated plants, infection levels were assessed on a scale of 0 to 100 percent disease severity. Percent disease control was calculated using the ratio of disease severity on treated plants relative to untreated plants. Evaluation of Fungicidal Activity: Apple Scab (Venturia Inaequalis; Bayer Code […]) Apple seedlings (variety McIntosh) were grown in soil-less Metro mix, with one plant per pot. Seedlings with two expanding young leaves at the top (older leaves at bottom of the plants were trimmed) were used in the test. Plants were inoculated with a spore suspension of Venturia inaequalis 24 hr after fungicide treatment and kept in a 22° C. dew chamber with 100% RH for 48 hr, and then moved to a greenhouse set at 20° C. for disease to develop. Fungicide formulation, application and disease assessment on the sprayed leaves followed the procedures as described in the Example A.

[3] = system: Cercospora beticola; assay: Leaf spot of sugar beets (CERCBE) fungicidal activity; details: 24 h, 1 Day Protectant, sugar beet, read-out: Disease Control CERCBE 1DP
Experimental: Technical grades of materials were dissolved in acetone, which were then mixed with nine volumes of water containing 110 ppm Triton X-100. The fungicide solutions were applied onto wheat seedlings using an automated booth sprayer to run-off. All sprayed plants were allowed to air dry prior to further handling. Wheat plants (variety Yuma) were grown from seed in a greenhouse in 50% mineral soil/50% soil-less Metro mix until the first leaf was fully emerged, with 7-10 seedlings per pot. These plants were inoculated with an aqueous spore suspension of Septoria tritici either prior to or after fungicide treatments. After inoculation the plants were kept in 100% relative humidity (one day in a dark dew chamber followed by two to three days in a lighted dew chamber at 20° C.) to permit spores to germinate and infect the leaf. The plants were then transferred to a greenhouse set at 20° C. for disease to develop. When disease symptoms were fully expressed on the 1st leaves of untreated plants, infection levels were assessed on a scale of 0 to 100 percent disease severity. Percent disease control was calculated using the ratio of disease severity on treated plants relative to untreated plants. Evaluation of Fungicidal Activity: Leaf Spot of Sugar Beets (Cercospora Beticola; Bayer Code CERCBE) Sugar beet plants (variety HH88) were grown in soil-less Metro mix and trimmed regularly to maintain an uniform plant size prior to test. Plants were inoculated with a spore suspension 24 hr after fungicide treatments. Inoculated plants were kept in a dew chamber at 22° C. for 48 hr then incubated in a greenhouse set at 24° C. under a clear plastic hood with bottom ventilation until disease symptoms were fully expressed. Fungicide formulation, application and disease assessment on the sprayed leaves followed the procedures as described in the Example A.

[4] = system: Magnaporthe grisea; Anamorph: Pyricularia oryzae; assay: whole plant or invertebrate; details: 24 h, read-out: Disease Control PYRIOR 1DP
[5] = system: Glomerella lagenarium; Anamorph: Colletotricum lagenarium; assay: Cucumber anthracnose (COLLLA) fungicidal activity; details: Colletotrichum orbiculare, 24 h, 1 Day Protectant, read-out: Disease Control COLLLA 1DP
Experimental: Technical grades of materials were dissolved in acetone, which were then mixed with nine volumes of water containing 110 ppm Triton X-100. The fungicide solutions were applied onto wheat seedlings using an automated booth sprayer to run-off. All sprayed plants were allowed to air dry prior to further handling. Wheat plants (variety Yuma) were grown from seed in a greenhouse in 50% mineral soil/50% soil-less Metro mix until the first leaf was fully emerged, with 7-10 seedlings per pot. These plants were inoculated with an aqueous spore suspension of Septoria tritici either prior to or after fungicide treatments. After inoculation the plants were kept in 100% relative humidity (one day in a dark dew chamber followed by two to three days in a lighted dew chamber at 20° C.) to permit spores to germinate and infect the leaf. The plants were then transferred to a greenhouse set at 20° C. for disease to develop. When disease symptoms were fully expressed on the 1st leaves of untreated plants, infection levels were assessed on a scale of 0 to 100 percent disease severity. Percent disease control was calculated using the ratio of disease severity on treated plants relative to untreated plants. Evaluation of Fungicidal Activity: Cucumber Anthracnose (Glomerella Lagenarium; Anamorph: Colletotricum Lagenarium; Bayer Code COLLLA) Cucumber seedlings (variety Bush Pickle) were propagated in soil-less Metro mix, with each pot having one plant, and used in the test when 12 to 14 days old. Test plants were inoculated with an aqueous spore suspension of Colletotricum lagenarium 24 hr after fungicide treatments. After inoculation the plants were kept in a dew room at 22° C. with 100% relative humidity for 48 hr to permit spores to germinate and infect the leaf. The plants were then transferred to a growth room set at 22° C. for disease to develop. Fungicide formulation, application and disease assessment on the sprayed leaves followed the procedures as described in the Example A.

| Structure (SMILES) | pest or weed control at 100 ppm [1] [%] | pest or weed control at 100 ppm [2] [%] | pest or weed control at 100 ppm [3] [%] | pest or weed control at 100 ppm [4] [%] | pest or weed control at 100 ppm [5] [%] |
| --- | --- | --- | --- | --- | --- |
| COc1ccnc(C(=O)N[C@H]2COC[C@H](Cc3ccccc3)[C@@H](OC(=O)c3ccccc3)[C@H](C)OC2=O)c1OCOC(C)=O [Compound 37] | 0 to 80 | 0 to 80 | 80 to 100 | 80 to 100 | 80 to 100 |
| COc1ccnc(C(=O)N[C@H]2COC[C@H](Cc3ccccc3)[C@@H](OC(=O)C3CC3)[C@H](C)OC2=O)c1OCOC(C)=O [Compound 38] | 0 to 80 | 0 to 80 | 80 to 100 | 80 to 100 | 80 to 100 |
| COc1ccnc(C(=O)N[C@H]2COC[C@H](Cc3ccccc3)[C@@H](OC)[C@H](C)OC2=O)c1OCOC(C)=O [Compound 39] | 0 to 80 | 0 to 80 | 0 to 80 | 80 to 100 | 80 to 100 |
| COc1ccnc(C(=O)N[C@H]2COC[C@H](Cc3ccccc3)[C@@H](Oc3ccccc3)[C@H](C)OC2=O)c1OCOC(C)=O [Compound 40] | 0 to 80 | 80 to 100 | 80 to 100 | 80 to 100 | 80 to 100 |
| COc1ccnc(C(=O)N[C@H]2COC[C@H](Cc3ccccc3)[C@@H](OC3CCCC3)[C@H](C)OC2=O)c1OC(C)=O [Compound 107] | 0 to 80 | 0 to 80 | 80 to 100 | 80 to 100 | 80 to 100 |
| COc1ccnc(C(=O)N[C@H]2COC[C@H](Cc3ccccc3)[C@@H](OC3CCCC3)[C@H](C)OC2=O)c1OCOC(=O)C(C)C [Compound 108] | 80 to 100 | 80 to 100 | 80 to 100 | 80 to 100 | 80 to 100 |
